Test results published in US9440933B2, “Azole derivative, method for producing same, intermediate compound, and agricultural or horticultural chemical agent and industrial material protecting agent” (KUREHA CORPORATION, priority 2011, dated 2016).

Key:
wheat [1] = experiment: Damage (necrosis) to wheat by seed treatment (pot test); type: in vivo; details: 2 mg in DMSO applied to wheat seeds 1 g, 12 days after seeding
Procedure: Damage (necrosis) to wheat was examined in a pot test. An inventive compound 1-2 and a comparative compound (1) were dissolved in DMSO (18 μl) respectively in an amount of 2 mg. The solution thus prepared was applied to wheat seeds 1 g in a vial and 8 seeds were seeded in a 80 cm^2 pot. The plant was grown in green house, as water was supplied from below, and the damage was determined 12 days after seeding.

[2] = test system: wheat leaf rust-causing microbe; experiment: Control activity of wheat leaf rust by seed treatment (pot test); type: in vivo, Puccinia recondita; details: 2 mg in DMSO applied to wheat seeds 10 g, inoculated 21 days after seeding
Procedure: Controlling activity to wheat leaf rust was examined in a pot test. […] The solution prepared was applied to wheat seeds 10 g in a vial and 8 wheat seeds were seeded in a 80 cm^2 pot. The seeds were grown in greenhouse, as water was supplied from below; a wheat leaf rust-causing microbe was inoculated 21 days after seeding; and the pot was stored in a constant-humidity box for 2 days. The plant was grown in green house, as water was supplied from below, and the incidence rate was determined and the controlling rate calculated […]. The controlling rate was calculated according to the equation below and used as the wheat leaf rust-controlling rate. Controlling rate=(1−Incidence rate in treated region/Incidence rate in non-treated region)×100(%)

wheat [3] = experiment: Damage to wheat (growth inhibition) by seed treatment (pot test); details: 2 mg in DMSO applied to wheat seeds 1 g, 14 to 28 days after seeding, larger index = smaller damage
[4] = test system: wheat powdery mildew-causing microbes; experiment: Controlling activity to wheat powdery mildew of seed treatment (pot test); type: in vivo, Erysiphe graminis f. sp tritici; details: 2 mg in DMSO applied to wheat seeds 1 g, 14 to 28 days after seeding
Procedure: Controlling activity to wheat powdery mildew was examined in a pot test. Each of the inventive compounds […]-53, and a comparative compound (1) was weighed in an amount of 2 mg and dissolved in DMSO (18 μl). The solution thus prepared was applied to wheat seeds 1 g in a vial, 8 wheat seeds were seeded in a 80 cm^2 pot. The wheat was grown, as water was supplied from blow, in a greenhouse where wheat powdery mildew-causing microbes are present abundantly. The incidence rate was determined and the controlling rate and additionally the controlling index calculated 14 to 28 days after seeding. The controlling rate was calculated and the wheat powdery mildew controlling index determined according to the following equation: Controlling rate=(1-Incidence rate in treated region/Incidence rate in non-treated region)×100(%) [table]

[5] = test system: wheat leaf blight-causing microbe; experiment: Antimicrobial activity to wheat leaf blight-causing microbe (PDA plate, hyphal expansion inhibition); type: cell-based, Septoria tritici; details: PDA medium, 25° C., 14 days; for inhibition at 50 µg/mL / inhibition at 1.25 µg/mL: 336 h; for inhibition at 50 µg/mL: read-out: Growth inhibition; for inhibition at 1.25 µg/mL: test sample concentration 1.25 mg/L, read-out: hyphal expansion-inhibiting rate
Procedure: In this Test Example, antimicrobial activity of the inventive compounds to wheat leaf blight-causing microbe was determined and compared with that of the comparative compound (1).

[6] = test system: wheat leaf rust-causing microbe; experiment: Wheat leaf rust-controlling activity (foliar spray, pot test); type: in vivo, Puccinia recondita
[7] = test system: Wheat glume blotch-causing microbe (Phaeosphaeria nodorum); experiment: Antimicrobial activity to various pathogenic microbes: P.n; details: 50 mg/L
Procedure: (§1) An inventive compound was dissolved in dimethylsulfoxide 2 ml. The solution 0.6 ml was added to a PDA medium (potato-dextrose-agar medium) 60 ml at around 60° C.
(§2) A flat plate containing a test microbe (wheat leaf blight-causing microbe) cultured separately was punched into pieces with a cork borer having a diameter of 4 mm and the circular plate obtained was placed on the flat plate media containing the chemical described above. The plates were cultured at 25° C. for 14 days after inoculation and the diameter of the microbial colony was determined. Hyphal expansion-inhibiting rate was calculated according to the following equation: R=100(dc−dt)/dc (wherein, R: hyphal expansion-inhibiting rate (%), dc: diameter of microbial colony on non-treated flat plate, dt: diameter of microbial colony on chemically-treated flat plate).
(§3) In this Test Example, the antimicrobial activity of the inventive compounds to various plant disease-causing fungi and industrial material-eroding microorganisms was studied by the method described in Example 1.
(§4) The results thus obtained were evaluated in 5 stages according to the criteria below:
Wheat glume blotch-causing microbe (Phaeosphaeria nodorum) P.n

[8] = test system: Apple alternaria blotch-causing microbe (Alternaria alternata); experiment: Antimicrobial activity to various pathogenic microbes: A.m; details: 50 mg/L
Procedure: as §1, §2, §3, §4
Apple alternaria blotch-causing microbe (Alternaria alternata) A.m

[9] = test system: Sclerotinia rot-causing microbe (Sclerotinia sclerotiorum); experiment: Antimicrobial activity to various pathogenic microbes: S.s; details: 50 mg/L
Procedure: as §1, §2, §4
Sclerotinia rot-causing microbe (Sclerotinia sclerotiorum) S.s

[10] = test system: Rice bakanae disease-causing microbe (Gibberella fujikuroi); experiment: Antimicrobial activity to various pathogenic microbes: G.f; details: 50 mg/L
Procedure: as §1, §2, §4

[11] = test system: Barley loose smut-causing microbe (Ustilago nuda); experiment: Antimicrobial activity to various pathogenic microbes: U.n; details: 50 mg/L
Procedure: as §1
(§5) The plates were cultured at 25° C. for 14 days after inoculation and the diameter of the microbial colony was determined. Hyphal expansion-inhibiting rate was calculated according to the following equation: R=100(dc−dt)/dc (wherein, R: hyphal expansion-inhibiting rate (%), dc: diameter of microbial colony on non-treated flat plate, dt: diameter of microbial colony on chemically-treated flat plate).
as §4
Barley loose smut-causing microbe (Ustilago nuda) U.n

[12] = test system: Gray mold-causing microbe (Botrytis cinerea); experiment: Antimicrobial activity to various pathogenic microbes: B.c; details: 50 mg/L
Procedure: as §1, §2, §3, §4
Gray mold-causing microbe (Botrytis cinerea) B.c

[13] = test system: Barley scald-causing microbe (Rhynchosporium secalis); experiment: Antimicrobial activity to various pathogenic microbes: R.sec; details: 50 mg/L
Procedure: as §1, §2, §3, §4
Barley scald-causing microbe (Rhynchosporium secalis) R.sec

[14] = test system: Wheat fusarium blight-causing microbe (Fusarium graminearum); type: cell-based; details: 50 mg/L
[15] = test system: Rice blast-causing microbe (Pyricularia oryzae); type: cell-based; details: 50 mg/L
[16] = test system: Wheat eye spot-causing microbe (Pseudocercoporella herpotrichoides); experiment: Antimicrobial activity to various pathogenic microbes: P.h; details: 50 mg/L
Procedure: as §1, §5, §4
Wheat eye spot-causing microbe (Pseudocercoporella herpotrichoides) P.h

[17] = test system: Cucumber Fusarium wilt-causing microbe (Fusarium oxysporum); experiment: Antimicrobial activity to various pathogenic microbes: F.c; details: 50 mg/L
Procedure: as §1, §2, §4

[18] = Concentration 25 g/ha, wettable powder sprayed on wheat (Norin No. 61), 9 to 14 days after inoculation

SMILES	Damage (necrosis) (wheat [1])	controlling rate (wheat leaf rust) [2] [%]	Damage index Growth inhibition (wheat [3])	Controlling index Wheat powdery mildew [4]	inhibition at 50 µg/mL ([5]; Concentration 50 mg/L) [%]	inhibition at 1.25 µg/mL [5] [%]	Controlling index [6, 18]	Controlling index ([6]; test sample concentration 1 g/ha, wettable powder sprayed on wheat)	Growth inhibition (hyphal expansion-inhibiting rate grade) P.n [7]	Growth inhibition (hyphal expansion-inhibiting rate grade) A.m [8]	Growth inhibition (hyphal expansion-inhibiting rate grade) S.s [9]	Growth inhibition (hyphal expansion-inhibiting rate grade) G.f [10]	Growth inhibition (hyphal expansion-inhibiting rate grade) U.n [11]	Growth inhibition (hyphal expansion-inhibiting rate grade) B.c [12]	Growth inhibition (hyphal expansion-inhibiting rate grade) R.sec [13]	Growth inhibition (hyphal expansion-inhibiting rate grade) F.g [14]	Growth inhibition (hyphal expansion-inhibiting rate grade) P.o [15]	Growth inhibition (hyphal expansion-inhibiting rate grade) P.h [16]	Growth inhibition (hyphal expansion-inhibiting rate grade) F.c [17]	Growth inhibition ([5]; Concentration 50 mg/L)
CC1(C)CC[C@H](Cc2ccc(Cl)cc2)[C@@]1(O)Cn1cncn1 (racemic) [Compound (1), (1RS,5SR)-5-(4-chlorobenzyl)-2-dimethyl-1-(1H-1,2,4-triazol-1-ylmethyl)cyclopentanol, reference compound]	necrotic symptom	88	0 (80% or more)	5 (Controlling rate: 40 or more)	> 80	60 to 80	5 (81 to 100)	4 (61 to 80)												
COC(=O)[C@]1(C)CC[C@@H](Cc2ccc(Cl)cc2)[C@]1(O)Cn1cncn1 (racemic) [Compound I-2, methyl-(1RS,2RS,3SR)-3-(4-chlorobenzyl)-2-hydroxy-1-methyl-2-(1H-1,2,4-triazol-1-ylmethyl)cyclopentanecarboxylate]	no necrotic symptom	95	1 (60% or more and less than 80%)	5 (Controlling rate: 40 or more)	> 80	≥ 80	5 (81 to 100)		5 (hyphal expansion-inhibiting rate: 80% or more)	5 (hyphal expansion-inhibiting rate: 80% or more)	5 (hyphal expansion-inhibiting rate: 80% or more)	5 (hyphal expansion-inhibiting rate: 80% or more)	5 (hyphal expansion-inhibiting rate: 80% or more)	5 (hyphal expansion-inhibiting rate: 80% or more)	5 (hyphal expansion-inhibiting rate: 80% or more)	5 (hyphal expansion-inhibiting rate: 80% or more)	5 (hyphal expansion-inhibiting rate: 80% or more)	5 (hyphal expansion-inhibiting rate: 80% or more)	5 (hyphal expansion-inhibiting rate: 80% or more)	
CCCOC(=O)[C@]1(C)CC[C@H](Cc2ccc(Cl)cc2)[C@@]1(O)Cn1cncn1 (racemic) [Compound I-136, n-propyl-(1RS,2SR,3RS)-3-(4-chlorobenzyl)-2-hydroxy-1-methyl-2-(1H-1,2,4-triazol-1-ylmethyl)cyclopentanecarboxylate]			4 (1% or more and less than 20%)	5 (Controlling rate: 40 or more)	> 80		5 (81 to 100)		5 (hyphal expansion-inhibiting rate: 80% or more)	5 (hyphal expansion-inhibiting rate: 80% or more)	5 (hyphal expansion-inhibiting rate: 80% or more)	5 (hyphal expansion-inhibiting rate: 80% or more)	5 (hyphal expansion-inhibiting rate: 80% or more)	5 (hyphal expansion-inhibiting rate: 80% or more)	5 (hyphal expansion-inhibiting rate: 80% or more)	5 (hyphal expansion-inhibiting rate: 80% or more)	5 (hyphal expansion-inhibiting rate: 80% or more)	5 (hyphal expansion-inhibiting rate: 80% or more)	5 (hyphal expansion-inhibiting rate: 80% or more)	
CC(C)OC(=O)[C@]1(C)CC[C@H](Cc2ccc(Cl)cc2)[C@@]1(O)Cn1cncn1 (racemic) [Compound I-137, isopropyl-(1RS,2SR,3RS)-3-(4-chlorobenzyl)-2-hydroxy-1-methyl-2-(1H-1,2,4-triazol-1-ylmethyl)cyclopentanecarboxylate]			5	5 (Controlling rate: 40 or more)	> 80		5 (81 to 100)		5 (hyphal expansion-inhibiting rate: 80% or more)	5 (hyphal expansion-inhibiting rate: 80% or more)	5 (hyphal expansion-inhibiting rate: 80% or more)	5 (hyphal expansion-inhibiting rate: 80% or more)	5 (hyphal expansion-inhibiting rate: 80% or more)	5 (hyphal expansion-inhibiting rate: 80% or more)	5 (hyphal expansion-inhibiting rate: 80% or more)	5 (hyphal expansion-inhibiting rate: 80% or more)	5 (hyphal expansion-inhibiting rate: 80% or more)	5 (hyphal expansion-inhibiting rate: 80% or more)	5 (hyphal expansion-inhibiting rate: 80% or more)	
CNC(=O)[C@]1(C)CC[C@H](Cc2ccc(Cl)cc2)[C@@]1(O)Cn1cncn1 (racemic) [Compound I-148, N-methyl-(1RS,2SR,3RS)-3-(4-chlorobenzyl)-2-hydroxy-1-methyl-2-(1H-1,2,4-triazol-1-ylmethyl)cyclopentane carboxyamide]			5	5 (Controlling rate: 40 or more)			5 (81 to 100)		5 (hyphal expansion-inhibiting rate: 80% or more)	5 (hyphal expansion-inhibiting rate: 80% or more)	5 (hyphal expansion-inhibiting rate: 80% or more)	5 (hyphal expansion-inhibiting rate: 80% or more)	5 (hyphal expansion-inhibiting rate: 80% or more)	5 (hyphal expansion-inhibiting rate: 80% or more)	5 (hyphal expansion-inhibiting rate: 80% or more)	5 (hyphal expansion-inhibiting rate: 80% or more)	5 (hyphal expansion-inhibiting rate: 80% or more)	5 (hyphal expansion-inhibiting rate: 80% or more)	5 (hyphal expansion-inhibiting rate: 80% or more)	5 (hyphal expansion-inhibiting rate: 80% or more)
